{
  "source": "patent EP4389156A1",
  "about": "“RA[…] LIGAND COMPOUNDS AND PRECURSORS THEREOF” (Technische Universität München, priority 2022, dated 2024)",
  "tested_on": "LNCaP tumor-bearing CB17-SCID mice",
  "assay": "Biodistribution study in LNCaP tumor-bearing mice",
  "assay_type": "in vivo",
  "method": "All animal experiments were conducted in accordance with general animal welfare regulations in Germany (German animal protection act, in the edition of the announcement, dated May 18th, 2006, as amended by Article 280 of June 19th 2020, approval no. ROB-55.2-1-2532.Vet_02-18-109 by the General Administration of Upper Bavaria) and the institutional guidelines for the care and use of animals. Male CB17-SCID mice were purchased from Charles River (Sulzfeld, Germany) and arrived at the in-house animal facility to acclimate at least 1 week before the start of the experiment. Tumor xenografts were established by subcutaneous inoculation of LNCaP cells (approx. 2 × 10^7 cells in 200 µL of a 1:1 mixture of Cultrex BME (R&D Systems, Minneapolis, United States) and DMEM/Ham's F-12) onto the right shoulder of 6-8 weeks old male CB17-SCID mice. The animals were used for experiments when tumors had grown to a size of 5-10 mm in diameter. Criteria for the exclusion of animals from the experiment were weight loss higher than 20%, tumor size above 1.5 cm^3, ulceration of the tumor, respiratory distress or change of behavior. […] Neither randomisation nor blinding was applied in the allocation of the experiments. Quarterly health monitoring was performed according to the FELASA recommendations.\nBiodistribution Studies. The ^99mTc-labeled radioligands (2.7 ± 0.7 MBq, 82 ± 20 pmol) were injected into a lateral tail vein of LNCaP-tumor bearing mice (n = 4-5) under isoflurane anesthesia. Animals were sacrificed at 6 h post injection (p.i.) by carbon dioxide inhalation and blood withdrawal via cardiac puncture. Blood and tissues of interest were collected, weighed and the activity measured in a γ-counter. Radioligand uptake is given in percent of the injected dose per gram of tissue (% ID/g) and results are presented as mean ± SD.\nIn line with the above, the biodistribution study of [^99mTc]Tc-N4-PSMA-21 was carried out with n = 5 animals (\"data set I\"). […] Kidney uptake of mouse #3 (36.17 %ID/g) exceeded the value obtained from the other four animals (4.58 ± 1.44 %ID/g, mean ± SD) 7.9-fold or by more than 20 standard deviations. In addition, tumor uptake of mouse #3 (21.92 %ID/g) exceeded the value obtained from the other four animals (11.02 ± 2.22 %ID/g, mean ± SD) 2.0-fold or by more than 4 standard deviations Due to the uncertainty whether these huge deviations arise from an experimental error or might be related to strongly deviating metabolic processes e.g. abnormal kidney function in mouse #3, the study primarily presents and discusses the data set based on the other four animals (n = 4, \"data set II\"). A thorough evaluation and comparison was, however, also carried out including mouse #3.",
  "key": {"[1]": {"details": "6 h p.i., male LNCaP tumor-bearing CB17-SCID mice, mean, n = 4-5"}, "[2]": {"details": "6 h p.i., mean of ratios of individual animals, n = 4-5"}, "[3]": {"details": "6 h p.i., relative to [^99mTc]Tc-PSMA-I&S"}},
  "note": "Several values for one entry are separate records, joined by “and”; a condition that tells them apart may be missing. Equal values may be shown once.",
  "data": [
    {"smiles": "CC(C)(C)[Si](O)(c1ccc(C(=O)NC[C@@H](NC(=O)[C@@H](CCC(=O)O)NC(=O)C(CNCCN)CNCCN)C(=O)N[C@H](CCCCNC(=O)CCC(=O)NCCC[C@@H](NC(=O)CC[C@H](NC(=O)N[C@@H](CCC(=O)O)C(=O)O)C(=O)O)C(=O)O)C(=O)O)cc1)C(C)(C)C.[O]=[99Tc+]=[O]", "note": "[[^99mTc]Tc-N4-PSMA-12]", "values": [
      {"measurement": "uptake in % iD/g adrenals", "setting": "[1]", "result": 0.6570, "unit": "% ID/g"},
      {"measurement": "uptake in % iD/g blood", "setting": "[1]", "result": "0.0200 ± 0.0044 % ID/g and 0.0200 % ID/g"},
      {"measurement": "uptake in % iD/g bone", "setting": "[1]", "result": 0.0365, "unit": "% ID/g"},
      {"measurement": "uptake in % iD/g heart", "setting": "[1]", "result": 0.0274, "unit": "% ID/g"},
      {"measurement": "uptake in % iD/g intestine", "setting": "[1]", "result": 0.5391, "unit": "% ID/g"},
      {"measurement": "uptake in % iD/g kidney", "setting": "[1]", "result": "12.3 ± 8.0 % ID/g and 12.2924 % ID/g"},
      {"measurement": "uptake in % iD/g liver", "setting": "[1]", "result": 0.1796, "unit": "% ID/g"},
      {"measurement": "uptake in % iD/g lung", "setting": "[1]", "result": 0.0613, "unit": "% ID/g"},
      {"measurement": "uptake in % iD/g muscle", "setting": "[1]", "result": 0.0110, "unit": "% ID/g"},
      {"measurement": "uptake in % iD/g pancreas", "setting": "[1]", "result": 0.0206, "unit": "% ID/g"},
      {"measurement": "uptake in % iD/g parotid gland", "setting": "[1]", "result": 0.0804, "unit": "% ID/g"},
      {"measurement": "uptake in % iD/g spleen", "setting": "[1]", "result": 0.8928, "unit": "% ID/g"},
      {"measurement": "uptake in % iD/g stomach", "setting": "[1]", "result": 0.0988, "unit": "% ID/g"},
      {"measurement": "uptake in % iD/g submandibular gland", "setting": "[1]", "result": 0.1450, "unit": "% ID/g"},
      {"measurement": "uptake in % iD/g tumor", "setting": "[1]", "result": 13.0231, "unit": "% ID/g"},
      {"measurement": "tumor-to-background ratio adrenals", "setting": "[2]", "result": 22.15},
      {"measurement": "tumor-to-background ratio blood", "setting": "[2]", "result": "658 ± 147 and 657.74"},
      {"measurement": "tumor-to-background ratio bone", "setting": "[2]", "result": 384.40},
      {"measurement": "tumor-to-background ratio heart", "setting": "[2]", "result": 484.90},
      {"measurement": "tumor-to-background ratio intestine", "setting": "[2]", "result": 57.76},
      {"measurement": "tumor-to-background ratio kidney", "setting": "[2]", "result": "1.64 ± 1.29 and 1.64"},
      {"measurement": "tumor-to-background ratio liver", "setting": "[2]", "result": 79.92},
      {"measurement": "tumor-to-background ratio lung", "setting": "[2]", "result": 216.68},
      {"measurement": "tumor-to-background ratio muscle", "setting": "[2]", "result": 1265.34},
      {"measurement": "tumor-to-background ratio pancreas", "setting": "[2]", "result": 637.21},
      {"measurement": "tumor-to-background ratio parotid gland", "setting": "[2]", "result": 177.38},
      {"measurement": "tumor-to-background ratio spleen", "setting": "[2]", "result": 17.89},
      {"measurement": "tumor-to-background ratio stomach", "setting": "[2]", "result": 158.87},
      {"measurement": "tumor-to-background ratio submandibular gland", "setting": "[2]", "result": 90.45},
      {"measurement": "fold T/blood-ratio in comparison with [^99mTc]Tc-PSMA-I&S", "setting": "[3]", "result": 3, "unit": "fold"},
      {"measurement": "fold T/kidney-ratio in comparison with [^99mTc]Tc-PSMA-I&S", "setting": "[3]", "result": 20, "unit": "fold"},
      {"measurement": "fold decrease of blood activity at 6 h p.i.", "setting": "relative to [^99mTc]Tc-PSMA-I&S", "result": 3.6, "unit": "fold"}
    ]}
  ]
}
